Results: PMC7496690, “Structure‐Activity Relationship and Crystallographic Studies on 4‐Hydroxypyrimidine HIF Prolyl Hydroxylase Domain Inhibitors” (Chemmedchem, 2019)
Read-outs that look alike come from different tables or passages of the source.

Tests used:
[1] = molecular target: T1, OGFOD1 (Homo sapiens, UniProt Q8N543); experiment: MALDI-TOF MS OGFOD1 hydroxylation assay; format: biochemical; conditions: at 10 μM inhibitor
T1 construct: made in house
T1 sequence (Q8N543 1-542): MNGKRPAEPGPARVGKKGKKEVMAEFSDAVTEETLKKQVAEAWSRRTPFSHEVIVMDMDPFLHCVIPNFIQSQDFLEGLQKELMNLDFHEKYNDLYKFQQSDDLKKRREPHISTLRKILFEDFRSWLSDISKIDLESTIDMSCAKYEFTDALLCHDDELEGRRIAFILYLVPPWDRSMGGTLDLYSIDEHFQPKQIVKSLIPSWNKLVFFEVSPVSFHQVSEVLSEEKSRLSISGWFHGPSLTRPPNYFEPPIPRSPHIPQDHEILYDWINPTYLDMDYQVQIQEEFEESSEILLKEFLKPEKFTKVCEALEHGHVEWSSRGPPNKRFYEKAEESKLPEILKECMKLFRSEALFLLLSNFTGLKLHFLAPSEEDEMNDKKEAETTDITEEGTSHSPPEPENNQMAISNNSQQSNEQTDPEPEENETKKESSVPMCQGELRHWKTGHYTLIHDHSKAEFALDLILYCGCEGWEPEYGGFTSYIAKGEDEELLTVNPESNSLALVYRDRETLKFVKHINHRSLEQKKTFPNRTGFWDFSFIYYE
Method: Supplementary Information […]
acid. […] Assay plates were transferred to a
MALDI-TOF MS OGFOD1 Hydroxylation Assays […]
metal affinity chromatography.
The optimized hydroxylation […]
(§1) presence of Fe(II) (50 μM), 2OG (25 μM), L-ascorbic acid (100 μM) and RPS2351-70 (25 μM) in HEPES (50 mM, pH 7.5) at 37 °C for 15 min. Reagent solutions were made as previously reported.[23] Reactions were quenched with formic acid (1 % v/v). Samples were prepared by mixing reaction mixture (1 μL) with α-cyano-4-hydrocinnamic acid (CHCA) solution (water:acetonitrile 1:1) (1 μL). Dose-response was assessed in 8-point triplicates.
(§2) Data were analysed using GraphPad Prism 5.04.

[2] = molecular target: T2, KDM4A (Homo sapiens, UniProt O75164); experiment: biochemical
T2 sequence (O75164 1-359 limits assumed): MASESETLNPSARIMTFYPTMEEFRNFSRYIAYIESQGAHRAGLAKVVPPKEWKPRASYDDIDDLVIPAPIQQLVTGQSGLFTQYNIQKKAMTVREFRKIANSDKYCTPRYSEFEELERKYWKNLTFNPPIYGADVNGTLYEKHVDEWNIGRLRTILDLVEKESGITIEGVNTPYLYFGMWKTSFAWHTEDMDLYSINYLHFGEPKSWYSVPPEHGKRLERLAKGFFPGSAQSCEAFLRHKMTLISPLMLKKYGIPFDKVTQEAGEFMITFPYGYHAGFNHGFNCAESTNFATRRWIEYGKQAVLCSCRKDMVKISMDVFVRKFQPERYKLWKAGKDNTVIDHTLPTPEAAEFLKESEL
Method: RapidFire-MS KDM4A hydroxylation assays
(§3) (RF-MS). […] The KDM4A RF-MS assay measures
(§4) depletion of a histone H3-K9 (Me3) peptide substrate and appearance of the dimethyl peptide
(§5) oxoglutarate (2OG, code K3752) were from Sigma Aldrich (Poole, Dorset). The H3K9Me3 peptide
(§6) each day to a concentration of 50 mM in deionized water, ferrous ammonium sulphate was prepared
(§7) freshly each day by dissolving to 400 mM in 10 mM HCl and then dilution to 1 mM in deionized
(§8) water, 2OG was prepared freshly each day by dissolving in 10 mM in deionized water. The
(§9) KDM4A RF-MS assay was performed in 384-well plate format in assay buffer (50 mM MES pH
(§10) 7.0). All reagent dispenses were performed using a multidrop reagent dispenser (Thermo). Dilutions
(§11) of compounds were prepared using an ECHO 550 acoustic dispenser (Labcyte) and dry dispensed
(§12) (250 nL) in duplicate into 384-well polypropylene plates (Greiner Bio-One); DMSO (250 nL) was
(§13) dispensed into columns 12 and 2, 4-pyridinedicarboxylic acid (a known JmjC KDM inhibitor)[21]
(§14) (250 nL of 10 mM) was dispensed into column 24 as a no enzyme control. KDM4A (300 nM) was
(§15) minutes. Reaction was initiated by dispensing of 25 µL of assay buffer containing substrate and co-
(§16) factors (200 µM LAA, 20 µM FAS, 20 µM 2OG and 20 µM H3K9Me3 peptide); reactions were
(§17) allowed to progress for 50 minutes, then stopped by addition of 5 µL of 10% (v/v) aqueous formic
(§18) acid. The final assay concentration of DMSO was 0.5% (v/v). Assay plates were transferred to a
(§19) RapidFire RF365 high throughput sampling robot and samples aspirated under vacuum onto a C4
(§20) SPE cartridge. After an aqueous wash step (0.1% v/v formic acid in water) to remove non-volatile
(§21) buffer components from the C4 SPE, peptide was eluted from the C4 SPE in an organic wash step
(§22) cycle of sample aspiration, loading, wash and elution takes approximately 12 seconds. Peptide
(§23) charge states were monitored in the positive ESI mode with a drying gas temperature of 280°C, a
(§24) drying gas flow rate of 13 L/minute, nebulizer gas pressure of 40 PSI, sheath gas temperature of
(§25) 350°C, sheath gas flow rate of 12 L/min and a nozzle voltage of 1000V. Ion chromatogram data
(§26) was extracted for the substrate and the product methyl marks and peak area data for extracted ion
(§27) chromatograms were integrated using RapidFire Integrator software (Agilent). % conversion to the
(§28) dimethyl peptide product was calculated using the equation:
(§29) % conversion = 100 x dimethyl / (dimethyl + trimethyl peptide)
(§30) IC50 data were determined from non -linear regression plots using GraphPad prism 6.0

[3] = molecular target: FIH (Homo sapiens, UniProt Q9NWT6); experiment: biochemical
Chain of FIH (Q9NWT6 whole entry): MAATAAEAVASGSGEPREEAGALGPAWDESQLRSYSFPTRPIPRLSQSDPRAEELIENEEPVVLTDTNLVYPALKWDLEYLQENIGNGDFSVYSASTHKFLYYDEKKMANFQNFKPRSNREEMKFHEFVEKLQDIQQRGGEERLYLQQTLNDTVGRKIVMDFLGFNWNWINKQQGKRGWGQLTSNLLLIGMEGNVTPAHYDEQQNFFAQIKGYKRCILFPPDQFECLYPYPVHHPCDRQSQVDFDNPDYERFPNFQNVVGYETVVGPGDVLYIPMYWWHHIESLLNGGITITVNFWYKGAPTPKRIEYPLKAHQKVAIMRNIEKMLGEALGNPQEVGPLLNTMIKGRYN
Method: chromatogram data were extracted for the +2 charge state and peak area data integrated using
RapidFire Integrator software (Agilent). The % conversion of the CODD peptide substrate to the +16 hydroxylated peptide was calculated using the equation:
determined from non-linear regression plots using GraphPad prism 6.0.
was normalized to no enzyme control.2
RapidFire-MS FIH hydroxylation assays
in the assay buffer (50 mM Tris-HCl pH 7.8, 50 mM NaCl) was pre - incubated for 15 minutes in
the presence of the inhibitors and the enzyme reaction initiated by addition of 20 μL substrate (200
μM L-ascorbic acid, 20 μM Fe(II) sulfate, 10 μM synthetic ankyrin peptide and 20 μM 2OG).[16]
After 15 minutes the reaction was quenched by addition of 4 μL 10% formic acid and the reaction
transferred to a RapidFire RF360 high throughput sampling robot. Samples were aspirated under
vacuum onto a C4 SPE cartridge. After an aqueous washing step (0.1% (v/v) aqueous formic acid),
to remove non-volatile buffer components from the C4 SPE cartridge , peptide was eluted in an
Ion chromatogram data was extracted for the non -hydroxylated
peptide substrate and the hydroxylated peptide product; the peak area data for extracted ion
chromatograms were integrated using RapidFire Integrator software. % conversion of substrate to
product was calculated in Microsoft excel and IC50 curves generated using Graph pad Prism.

[4] = molecular target: T3, PHD2_181‐426 (Homo sapiens, UniProt Q9GZT9); experiment: biochemical
T3 sequence (Q9GZT9 181-426): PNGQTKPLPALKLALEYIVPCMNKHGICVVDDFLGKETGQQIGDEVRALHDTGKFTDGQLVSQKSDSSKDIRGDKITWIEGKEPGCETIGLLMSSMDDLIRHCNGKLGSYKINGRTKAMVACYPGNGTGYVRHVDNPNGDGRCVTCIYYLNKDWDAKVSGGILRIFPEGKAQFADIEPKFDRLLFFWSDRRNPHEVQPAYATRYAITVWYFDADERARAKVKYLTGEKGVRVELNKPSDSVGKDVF

[5] = molecular target: T3, PHD2_181‐426; experiment: biochemical; remark: listed apart in the source
[6] = molecular target: T4, viral collagen prolyl hydroxylase (vCPH) (Paramecium bursaria Chlorella virus 1, UniProt Q84406); experiment: MALDI-TOF MS vCPH hydroxylation assay; format: biochemical
T4 construct: made in house
T4 sequence (Q84406 entry or part of it): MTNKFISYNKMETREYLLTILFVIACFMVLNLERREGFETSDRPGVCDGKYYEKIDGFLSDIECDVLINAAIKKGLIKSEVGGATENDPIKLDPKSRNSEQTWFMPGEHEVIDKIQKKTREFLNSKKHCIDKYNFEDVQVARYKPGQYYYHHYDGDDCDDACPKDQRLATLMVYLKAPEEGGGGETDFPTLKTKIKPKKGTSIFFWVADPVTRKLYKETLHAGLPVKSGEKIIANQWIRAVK
Method: as §1, with “Supplementary Information presence” for “presence”
as §2

[7] = tested on: Hep‐3B human cell line; experiment: Cellular HIF-1α stabilization by immunoblotting; format: cell-based; conditions: Hep3B, 3 hours, immunoblot
Method: Other factors including cell penetration and metabolism likely impact on cellular activity.
Supplementary Information
Figure S7: Immunoblots of Hep3B cells treated with 100 μM (A) and 20 μM (B) PHD inhibitors for 3 hours. The blots show protein levels of HIF1-α and β-actin at the 3rd hour. Protocols for cell culture and immunoblotting have been previously reported.[2] […]

[8] = molecular target: T2, KDM4A
Method: RapidFire-MS KDM4A hydroxylation assays
as §3, §4, §5, §6, §7, §8, §9, §10, §11, §12, §13, §14, §15, §16, §17, §18, §19, §20, §21, §22, §23, §24, §25, §26, §27, §28, §29, §30

SMILES	OGFOD1 activity relative to control [1] [%]	IC50 [2] [µM]	IC50 [3] [µM]	cellular HIF‐1α stabilization ([7]; 100 μM)	IC50 [6] [nM]	also measured
Cc1nc(C(=O)NCC(=O)O)c(O)c2ccc(Oc3ccccc3)cc12 [compound 1, Roxadustat, reference compound]	100					
CCOC(=O)c1cnc(-n2cccn2)nc1O [compound 6, Ethyl 4-hydroxy-2-(1H-pyrazol-1-yl) pyrimidine-5-carboxylate]		> 25	> 25			IC50 [4]: > 25 µM; IC50 [5]: > 25 µM; vCPH inhibition (in words) [6]: inactive
O=C(NCc1ccc(Oc2ccccc2)cc1)c1cnc(-n2cccn2)nc1O [compound 8, 4-Hydroxy-N-(4-phenoxybenzyl)-2-(1H-pyrazol-1-yl)pyrimidine-5-carboxamide]	83±13	> 25		strongest activity	2000 ± 100	
O=C(NCc1ccc(-c2ccccc2)cc1)c1cnc(-n2cccn2)nc1O [compound 9, N-([1,1’-Biphenyl]-4-ylmethyl)-4-hydroxy-2-(1H-pyrazol-1-yl)pyrimidine-5-carboxamide]		20	> 25			
O=C(NCc1ccccc1)c1cnc(-n2cccn2)nc1O [compound 10, N-Benzyl-4-Hydroxy-2-(1H-pyrazol-1-yl)pyrimidine-5-carboxamide]		> 25				
O=C(NCc1ccccn1)c1cnc(-n2cccn2)nc1O [compound 11, 4-Hydroxy-2-(1H-pyrazol-1-yl)-N-(pyridin-2-ylmethyl)pyrimidine-5-carboxamide]		17				
O=C(NCC1CCCCC1)c1cnc(-n2cccn2)nc1O [compound 12, N-(Cyclohexylmethyl)-4-hydroxy-2-(1H-pyrazol-1-yl)pyrimidine-5-carboxamide]		> 25	> 25			IC50 [4]: > 25 µM; IC50 [5]: > 25 µM
O=C(NCc1cccc(C(F)(F)F)c1)c1cnc(-n2cccn2)nc1O [compound 13, 4-Hydroxy-2-(1H-pyrazol-1-yl)-N-(3-(trifluoromethyl)benzyl)pyrimidine-5-carboxamide]	75±1	> 25	> 25			
O=C(NCc1ccc2c(c1)OCO2)c1cnc(-n2cccn2)nc1O [compound 14, N-(Benzo[d][1,3]dioxol-5-ylmethyl)-4-hydroxy-2-(1H-pyrazol-1-yl)pyrimidine-5-carboxamide]		23				IC50 [4]: 0.261 ± 0.037 µM; IC50 [5]: 0.274 ± 0.034 µM
O=C(Nc1ccc(-c2ccccc2)cc1)c1cnc(-n2cccn2)nc1O [compound 15, N-([1,1’-Biphenyl]-4-yl)-4-hydroxy-2-(1H-pyrazol-1-yl)pyrimidine-5-carboxamide]		> 25		strongest activity	28200 ± 1000	cellular HIF‐1α stabilization ([7]; 20 μM): manifested HIF‐1α stabilization
O=C(N[C@@H](CO)c1ccccc1)c1cnc(-n2cccn2)nc1O [compound 16]	41±5	> 25		inactive	1100 ± 100	
O=C(N[C@H](CO)c1ccccc1)c1cnc(-n2cccn2)nc1O [compound 17]	70±3	21		modest HIF‐1α stabilization		
Cc1cccnc1CN1CCC2(CC1)C(=O)N(c1ccc(-c3ccccc3)cc1)C(=O)N2c1ncccn1 [compound 18, reference compound]			> 25	strongest activity	> 100000	cellular HIF‐1α stabilization ([7]; 20 μM): manifested HIF‐1α stabilization; IC50 [8]: 4.65 µM
